What was measured:
Assay in all cases: Biomarker study proliferation (CellTiter-Glo)
Assay type in all cases: cell-based
CACO2 = test system: CACO2
How it was run: (§1)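 Seeding density 5000 cells/well; overnight recovery; compound 10-pt, 1:3; 7 d, 37 °C, 5% CO2; CellTiter-Glo, 15 min RT; luminescence. Ctrl: staurosporine 5 μM final.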

CAOV3 = test system: CAOV3
How it was run: as §1

CCRFCEM = test system: CCRFCEM
How it was run: as §1

HS294T = test system: HS294T
How it was run: as §1

JURKAT = test system: JURKAT
How it was run: as §1

KE97 = test system: KE97
How it was run: as §1

KYSE70 = test system: KYSE70
How it was run: as §1

Karpas1106 = test system: Karpas1106
How it was run: as §1

LNCAP = test system: LNCAP
How it was run: as §1

MDST8 = test system: MDST8
How it was run: as §1

NCIH1734 = test system: NCIH1734
How it was run: as §1

NIHOVCAR3 = test system: NIHOVCAR3
How it was run: as §1

SJRH30 = test system: SJRH30
How it was run: as §1

SNU1079 = test system: SNU1079
How it was run: as §1

SNU1 = test system: SNU1
How it was run: as §1

SNU398 = test system: SNU398
How it was run: as §1

SW780 = test system: SW780
How it was run: as §1

UMUC3 = test system: UMUC3
How it was run: as §1

[1] = 168 h, read-out: Anti-proliferation effect IC50

## Cc1cc(NC2CCN(C(=O)O[C@H]3CCN(C(=O)/C=C/CN(C)C)C3)CC2)n2ncc(C(C)C)c2n1 [Example 1, [(3S)-1-[(E)-4-(dimethylamino)but-2-enoyl]pyrrolidin-3-yl] 4-[(3-isopropyl-5-methyl-pyrazolo[1,5-a]pyrimidin-7-yl)amino]piperidine-1-carboxylate]
CACO2; CACO2, INTESTINE, 7 days
  Anti-proliferation effect % Inh.: 60%
  Anti-proliferation effect Outcome: Cytostatic (cytostatic (IC50<1 μM and % inhibition <70%))
CACO2; Homo sapiens, Caco-2, 168 h, read-out: Anti-proliferation effect IC50
  IC50: 189 nM
CAOV3; CAOV3, OVARY, 7 days
  Anti-proliferation effect % Inh.: 96%
  Anti-proliferation effect Outcome: Cytotoxic (cytotoxic (IC50<1 μM and % inhibition ≥70%))
CAOV3; Homo sapiens, Caov-3, 168 h, read-out: Anti-proliferation effect IC50
  IC50: 19 nM
CCRFCEM; CCRFCEM, BLOOD, 7 days
  Anti-proliferation effect % Inh.: 96%
  Anti-proliferation effect Outcome: Cytotoxic (cytotoxic (IC50<1 μM and % inhibition ≥70%))
CCRFCEM; Homo sapiens, CCRF-CEM, 168 h, read-out: Anti-proliferation effect IC50
  IC50: 40 nM
HS294T; HS294T, SKIN, 7 days
  Anti-proliferation effect % Inh.: 84%
  Anti-proliferation effect Outcome: Cytotoxic (cytotoxic (IC50<1 μM and % inhibition ≥70%))
HS294T; Homo sapiens, Hs 294T, 168 h, read-out: Anti-proliferation effect IC50
  IC50: 20 nM
JURKAT; Homo sapiens, Jurkat, 168 h, read-out: Anti-proliferation effect IC50
  IC50: 61 nM
JURKAT; JURKAT, BLOOD, 7 days
  Anti-proliferation effect % Inh.: 98%
  Anti-proliferation effect Outcome: Cytotoxic (cytotoxic (IC50<1 μM and % inhibition ≥70%))
KE97; KE97, BLOOD, 7 days
  Anti-proliferation effect % Inh.: 58%
  Anti-proliferation effect Outcome: Cytostatic (cytostatic (IC50<1 μM and % inhibition <70%))
KE97; KE-97, 168 h, read-out: Anti-proliferation effect IC50
  IC50: 158 nM
KYSE70; Homo sapiens, KYSE-70, 168 h, read-out: Anti-proliferation effect IC50
  IC50: 126 nM
KYSE70; KYSE70, OESOPHAGUS, 7 days
  Anti-proliferation effect % Inh.: 70%
  Anti-proliferation effect Outcome: Cytotoxic (cytotoxic (IC50<1 μM and % inhibition ≥70%))
Karpas1106; [1]
  IC50: 26 nM
Karpas1106; Karpas1106, BLOOD, 7 days
  Anti-proliferation effect % Inh.: 98%
  Anti-proliferation effect Outcome: Cytotoxic (cytotoxic (IC50<1 μM and % inhibition ≥70%))
LNCAP; Homo sapiens, LNCaP, 168 h, read-out: Anti-proliferation effect IC50
  IC50: 59 nM
LNCAP; LNCAP, PROSTATE, 7 days
  Anti-proliferation effect % Inh.: 74%
  Anti-proliferation effect Outcome: Cytotoxic (cytotoxic (IC50<1 μM and % inhibition ≥70%))
MDST8; MDST8, 168 h, read-out: Anti-proliferation effect IC50
  IC50: 49 nM
MDST8; MDST8, INTESTINE, 7 days
  Anti-proliferation effect % Inh.: 88%
  Anti-proliferation effect Outcome: Cytotoxic (cytotoxic (IC50<1 μM and % inhibition ≥70%))
NCIH1734; Homo sapiens, NCI-H1734, 168 h, read-out: Anti-proliferation effect IC50
  IC50: 24 nM
NCIH1734; NCIH1734, LUNG, 7 days
  Anti-proliferation effect % Inh.: 76%
  Anti-proliferation effect Outcome: Cytotoxic (cytotoxic (IC50<1 μM and % inhibition ≥70%))
NIHOVCAR3; Homo sapiens, OVCAR-3, 168 h, read-out: Anti-proliferation effect IC50
  IC50: 40 nM
NIHOVCAR3; NIHOVCAR3, OVARY, 7 days
  Anti-proliferation effect % Inh.: 96%
  Anti-proliferation effect Outcome: Cytotoxic (cytotoxic (IC50<1 μM and % inhibition ≥70%))
SJRH30; Homo sapiens, SJRH30, 168 h, read-out: Anti-proliferation effect IC50
  IC50: 39 nM
SJRH30; SJRH30, SOFT TISSUE, 7 days
  Anti-proliferation effect % Inh.: 62%
  Anti-proliferation effect Outcome: Cytostatic (cytostatic (IC50<1 μM and % inhibition <70%))
SNU1079; [1]
  IC50: 38 nM
SNU1079; SNU1079, BILIARY, 7 days
  Anti-proliferation effect % Inh.: 89%
  Anti-proliferation effect Outcome: Cytotoxic (cytotoxic (IC50<1 μM and % inhibition ≥70%))
SNU1; Homo sapiens, SNU1, 168 h, read-out: Anti-proliferation effect IC50
  IC50: 105 nM
SNU1; SNU1, STOMACH, 7 days
  Anti-proliferation effect % Inh.: 68%
  Anti-proliferation effect Outcome: Cytostatic (cytostatic (IC50<1 μM and % inhibition <70%))
SNU398; Homo sapiens, SNU-398, 168 h, read-out: Anti-proliferation effect IC50
  IC50: 21 nM
SNU398; SNU398, LIVER, 7 days
  Anti-proliferation effect % Inh.: 85%
  Anti-proliferation effect Outcome: Cytotoxic (cytotoxic (IC50<1 μM and % inhibition ≥70%))
SW780; Homo sapiens, SW780, 168 h, read-out: Anti-proliferation effect IC50
  IC50: 74 nM
SW780; SW780, URINARY, 7 days
  Anti-proliferation effect % Inh.: 68%
  Anti-proliferation effect Outcome: Cytostatic (cytostatic (IC50<1 μM and % inhibition <70%))
UMUC3; Homo sapiens, UMUC3, 168 h, read-out: Anti-proliferation effect IC50
  IC50: 161 nM
UMUC3; UMUC3, URINARY, 7 days
  Anti-proliferation effect % Inh.: 70%
  Anti-proliferation effect Outcome: Cytotoxic (cytotoxic (IC50<1 μM and % inhibition ≥70%))

From patent US20210032257A1, “(E)-1-(4-(DIMETHYLAMINO)BUT-2-ENOYL)PYRROLIDIN-3-YL 4-((3-ISOPROPYL-5-METHYLPYRAZOLO[1,5-A]PYRIMIDIN-7-YL)AMINO)PIPERIDINE-1-CARBOXYLATE FOR INHIBITING CDK7” (Eli Lilly and Company, priority 2017, published 2021)
